Positions of bridges follow the written chain, without caps; N, C: chain ends. Non-standard residues stand in square brackets, D forms with d. Residues, ends and D or L forms follow the SMILES beside them.
Experiments:
frog Rana pipiens = experiment: Frog skin bioassay (skin darkening, peripheral activity); format: in vivo; conditions: injected into dorsal lymph sac of Rana pipiens, 30 minute observation
Experimental: (§1) Central nervous system activity is determined in an assay which measures the ability of peptides to reverse or inhibit the in vivo analgesia induced in rats by morphine compared to the ability of the peptide to cause skin darkening in frogs in vivo. For a discussion of these assays see generally, Beckwith, B. E. and Sandman, C. A., Peptides, 3, 411-420 (1982) and Zimmerman, E. and Krivoy, W. A., Prog. Brain Res.; 39, 383-394 (1973), which are specifically incorporated by reference herein.
The peripheral activity of the compounds was tested using the frog skin bioassay system. See O'Donohue, T. L. and Dorsa, D. M., Peptides, 3, 353-395 (1982) and Hadley, M.E. et. al., Science, 213, 1025-1027 (1981) which are herein specifically incorporated by reference. Peptides were injected into the dorsal lymph sac of the frog Rana pipiens in amounts up to 20 mg. […] The lowest dose of peptide that produced skin darkening within the 30 minute observation period was determined. For example, in Table I, only 0.1 ng/g of α-MSH was administered before skin darkening was observed. In contract, 30 μg/g of [drawing 23] was administered and no skin darkening was observed.

Sprague-Dawley rats [1] = experiment: Morphine antagonism, tail flick test; format: in vivo, rat; conditions: Reversal of morphine analgesia, 100 μg peptide given I.P. 30 min before 5 mg/kg morphine; 55° C. water bath, 15 s cut-off; water vehicle control 48.9
Experimental: as §1
(§2) In Vivo Bioassays. Morphine antagonism was tested in Sprague-Dawley rats (250-300 g) by administering the compounds of the present invention and measuring the latency to rear paw lick and jumping.
(§3) Each rat received either a water vehicle or an α-MSH analog intraperitoneally. Thirty minutes later 5 mg/kg of morphine was administered to all animals and 30 minutes after the administration of the morphine, the percent analgesia was measured. Each animal was placed on a 55° C. hot plate. A sixty second cut-off was used and animals not responding within this time was considered analgesic. The results of these tests are summarized in Table I. Percent analgesia was calculated as follows: [formula] Antagonism to morphine analgesia was also measured using the tail flick test. The tails of the treated animals were placed in a 55° C. water bath and the latency of the animals to withdraw was measured in seconds. A fifteen second cut-off time was used.
Percent analgesia in the tail flick test was calculated as follows: [formula]

Sprague-Dawley rats [2] = experiment: Morphine antagonism, hot plate test; format: in vivo, rat; conditions: Reversal of morphine analgesia, 100 μg peptide given I.P. 30 min before 5 mg/kg morphine; 55° C. hot plate, 60 s cut-off; water vehicle control 56.1
Experimental: as §1, §2, §3

Molecule | Minimum dose Producing Skin Darkening (frog Rana pipiens) | Percent Analgesia Tail Flick (Sprague-Dawley rats [1]) | Percent Analgesia Hot Plate (Sprague-Dawley rats [2])
N=C(N)NCCC[C@H]1NC(=O)[C@H](Cc2ccccc2)NC(=O)[C@H](Cc2c[nH]cn2)NC(=O)[C@H](CCC(=O)O)NC(=O)[C@@H](N)CSSC[C@@H](C(=O)O)NC(=O)[C@H](Cc2c[nH]c3ccccc23)NC1=O | > 20 µg/g | 6.7% | –
NCCCC[C@H]1NC(=O)[C@H](Cc2ccccc2)NC(=O)[C@H](Cc2c[nH]cn2)NC(=O)[C@H](CCC(=O)O)NC(=O)[C@@H](N)CSSC[C@@H](C(=O)O)NC(=O)[C@H](Cc2ccccc2)NC1=O (H-CEHF[dK]FC-OH; disulfide 1-7) | > 1 µg/g | 14.9% | 15.5%
NCCCC[C@H]1NC(=O)[C@H](Cc2ccccc2)NC(=O)[C@H](Cc2c[nH]cn2)NC(=O)[C@H](CCC(=O)O)NC(=O)[C@@H](N)CSSC[C@H](C(=O)O)NC(=O)[C@H](Cc2ccccc2)NC1=O (H-CEHF[dK]F[dC]-OH; disulfide 1-7) | 1 µg/g | 10.5% | 15.0%
N=C(N)NCCC[C@H]1NC(=O)[C@H](Cc2ccccc2)NC(=O)[C@H](Cc2c[nH]cn2)NC(=O)[C@H](CCC(=O)O)NC(=O)[C@@H](N)CSSC[C@H](C(=O)O)NC(=O)[C@H](Cc2ccccc2)NC1=O (H-CEHF[dR]F[dC]-OH; disulfide 1-7) | > 1 µg/g | 34.3% | 42.6%
NCCCC[C@H]1NC(=O)[C@H](Cc2ccccc2)NC(=O)[C@H](Cc2c[nH]cn2)NC(=O)[C@H](CCC(=O)O)NC(=O)[C@@H](N)CSSC[C@@H](C(=O)O)NC(=O)[C@H](Cc2c[nH]c3ccccc23)NC1=O (H-CEHF[dK]WC-OH; disulfide 1-7) | > 30 µg/g | 1.5% | –
β-MSH [reference compound] | – | 11.9% | 26.9%

— US4649191A, “Conformationally constrained alpha-melanotropin analogs with specific central nervous system activity” (Gibson-Stephens Neuropharmaceuticals, Inc., priority 1984, dated 1987)
